This experiment deals with T1, Glucocorticoid receptor (Homo sapiens, UniProt P04150).
T1 sequence (P04150 whole entry): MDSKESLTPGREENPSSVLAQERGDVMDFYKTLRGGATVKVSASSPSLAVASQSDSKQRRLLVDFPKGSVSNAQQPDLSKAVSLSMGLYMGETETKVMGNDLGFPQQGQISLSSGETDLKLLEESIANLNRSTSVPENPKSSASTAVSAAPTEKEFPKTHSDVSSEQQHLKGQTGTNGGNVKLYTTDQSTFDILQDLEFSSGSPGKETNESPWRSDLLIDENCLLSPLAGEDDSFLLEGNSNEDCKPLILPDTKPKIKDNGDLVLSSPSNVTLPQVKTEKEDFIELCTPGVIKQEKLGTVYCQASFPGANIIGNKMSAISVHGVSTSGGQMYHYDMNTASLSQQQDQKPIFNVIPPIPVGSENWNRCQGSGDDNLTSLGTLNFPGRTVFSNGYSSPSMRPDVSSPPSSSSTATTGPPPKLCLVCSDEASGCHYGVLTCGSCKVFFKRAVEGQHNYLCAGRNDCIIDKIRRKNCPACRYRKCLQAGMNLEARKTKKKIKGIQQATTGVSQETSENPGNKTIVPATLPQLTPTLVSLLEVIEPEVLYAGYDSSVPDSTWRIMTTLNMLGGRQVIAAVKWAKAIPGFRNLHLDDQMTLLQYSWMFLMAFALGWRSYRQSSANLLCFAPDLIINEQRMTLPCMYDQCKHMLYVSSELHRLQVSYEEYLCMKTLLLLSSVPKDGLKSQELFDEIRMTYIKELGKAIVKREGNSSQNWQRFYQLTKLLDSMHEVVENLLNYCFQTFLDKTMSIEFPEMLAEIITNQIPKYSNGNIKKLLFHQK
Description: Antagonist activity at glucocorticoid receptor (unknown origin) by NH Pro assay.

One may read the IC50 as the concentration needed to halve the response being measured.

Consider `COc1cc(CNC(=O)[C@@]2(Cc3ccccc3)OC(=O)N([C@@H]3CCc4ccccc43)C2=O)cc(OC)c1`, for which the IC50 is above 20 µM.

On to `C[C@H](c1ccc(F)cc1)N1C(=O)O[C@](Cc2ccc(F)cc2)(C(=O)NCc2ccc(Cl)c(Cl)c2)C1=O`, for which the IC50 was found to be 11 µM.

Values taken from ChEMBL document CHEMBL2407028, “Discovery of novel oxazolidinedione derivatives as potent and selective mineralocorticoid receptor antagonists” (Bioorg Med Chem Lett, 2013).
